Laboratory results reported in patent publication US20080227757A1, “Formulation for dermal application” (priority 2005, published 2008).

Assays:
[1] = Octanol-water distribution coefficient (log P), lipophily
Procedure: The lipophily value P gives low lipophility at a low value of the logarithm of P (log P), and a high value of the log P gives high lipophily. The distribution coefficient P is measured at pH 7.4 and 21° C. in octanol water.

[2] = Permeation of active ingredient from formulations through isolated human Stratum corneum (modified Franz cell); settings: active ingredient in the inventive formulation
Procedure: To determine the permeation of an active ingredient from the inventive formulation compared to conventional formulations containing active ingredients pharmaceutical preparations containing 5-aminolevulinic acid were tested in vitro on isolated human skin.
Human Stratum corneum, originating from biopsies of plastic operations, was used as isolated human skin. Following the biopsy subcutaneous fat was removed and the skin was frozen in liquid nitrogen, then stored at −25° C. After gradual thawing the Stratum corneum was isolated by trypsination on filter paper, and impregnated with an aqueous 2% trypsin solution. After incubation at 37° C. for 24 h the Stratum corneum could be lifted off, incubated in a 0.01% aqueous solution trypsin inhibitor and then washed several times in water. This isolated horny layer was dried and stored at room temperature in the desiccator. For permeation examinations a modified Franz cell was used, the compartments of which were separated off through the Stratum corneum. Pretreatment of the Stratum corneum is done by total hydration in water and placement on a polycarbonate filter (Isopor membrane filter, type TMTP, 5.0 μm, Millipore) to boost mechanical stability. The donor compartment was filled with inventive or respectively comparative formulation containing 5-aminolevulinic acid, whereby 5-aminolevulinic acid at 10% by weight was contained in the formulations.
The preparation containing 5-aminolevulinic acid, procurable according to Example 2, was tested for permeation as inventive preparation, as compared to a formulation with conventional cream base according to the German Pharmacopoeia (70 parts water, 30 parts hydrophilic salve from 30 parts emulsifying cetylstearyl alcohol (type A), 35 parts viscid paraffin and 35 parts soft Vaseline), and in comparison to a formulation in dolgit microgel (5% by weight ibuprofen, in 2-propanol, dimethyl isosorbide, poloxamer, medium-chain triglycerides, lavender oil, neroli oil and water).
After application the quantity of active ingredient permeated through the skin was measured.

| SMILES | logP ([1]; octanol/water, pH 7.4) | log P ([1]; octanol water, pH 7.4, 21° C.) | permeation of the active ingredient from the inventive formulation through the human Stratum corneum [2] | other results |
| --- | --- | --- | --- | --- |
| CCCCOC(=O)CCC(=O)CN [5-ALA-butylester, 5-aminolevulinic acid butyl ester] | 1.42 |  |  |  |
| NCC(=O)CCC(=O)OC1CCCCC1 [5-ALA-cyclohexylester] |  | 1.494 |  |  |
| CCOC(=O)CCC(=O)CN [5-ALA-ethylester] |  | 0.8411 |  |  |
| CCCCCCOC(=O)CCC(=O)CN [5-ALA-hexylester] |  | 1.839 |  |  |
| COC(=O)CCC(=O)CN [5-ALA-methylester, methyl ester of 5-aminolevulinic acid] |  |  |  | log P ([1]; pH 7.4): −0.9423 |
| CCCCCCCCOC(=O)CCC(=O)CN [5-ALA-octylester] |  | 2.6199 |  |  |
| NCC(=O)CCC(=O)O [Example 5-ALA, 5-aminolevulinic acid] | -1.52 |  |  |  |
| CC(=O)Oc1ccccc1C(=O)O [acetylsalicylic acid] | -1.15 |  | improvement in permeation |  |
| Clc1ccccc1C(c1ccccc1)(c1ccccc1)n1ccnc1 [clotrimazole] |  |  | improvement in permeation | logP ([1]; pH 7.4): 4.1 |
| CC(=O)OCC(=O)[C@@]1(O)CC[C@H]2[C@@H]3CCC4=CC(=O)CC[C@]4(C)[C@H]3[C@@H](O)C[C@@]21C [hydrocortisone acetate] |  |  | improvement in permeation | logP ([1]; pH 7.4): 2.18 |
| CN(C/C=C/C#CC(C)(C)C)Cc1cccc2ccccc12 [terbinafine] | 3.3 |  | improvement in permeation |  |
